This is an account of results in ChEMBL document CHEMBL1147696, “Discovery of bitriazolyl compounds as novel antiviral candidates for combating the tobacco mosaic virus” (2006).

Format in all cases: functional
Assay [1] has as its system Tobacco mosaic virus. As to the kind of experiment: Antiviral activity against TMV. Details: concentration or dose not given beside the values.
The test system of assay [2] is Tobacco mosaic virus. As to the kind of experiment: Induction of systemic acquired resistance of tobacco plant against TMV at 100 ug/ml by soil treatment.
In assay [3] the test system is Tobacco mosaic virus. As to the kind of experiment: Induction of systemic acquired resistance of tobacco plant against TMV at 100 ug/ml by leaf spray treatment.

Turning to `CCCCCc1ccc(-c2cn(-c3n[nH]c(C(N)=O)n3)nn2)cc1`, the Activity in assay [1] worked out at 28%. Same read-out and setting: next, `NC(=O)c1n[nH]c(-n2cc(-c3ccccc3)nn2)n1`: 0%; `NC(=O)c1cn(-c2n[nH]c(C(N)=O)n2)nn1`: 0%. Same read-out and setting: next, `COC(=O)c1n[nH]c(-n2cc(C3(O)CCCCC3)nn2)n1`: 17%.

Regarding `COC(=O)c1n[nH]c(-n2cc(-c3ccccc3)nn2)n1`, the Activity in assay [2] turned out to be 10%; in assay [1], 63%; in assay [3], 10%. `COC(=O)c1n[nH]c(-n2cc(-c3ccc(OC)cc3)nn2)n1` gave an Activity in assay [1] of 15%.

Take `NC(=O)c1ncn([C@@H]2O[C@H](CO)[C@@H](O)[C@H]2O)n1` [RIBAVIRIN]: in assay [1], the Activity stood at 49%. Take `COC(=O)c1n[nH]c(-n2cc(C3=CCCCC3)nn2)n1`: the Activity was found to be 0% in assay [2], 75% in assay [1] and 0% in assay [3]. In assay [1], `NC(=O)c1n[nH]c(-n2cc(C3(O)CCCCC3)nn2)n1` gave an Activity of 0%. On the same count and under the same terms, next, `COC(=O)c1n[nH]c(-n2cc(-c3ccc(C)cc3)nn2)n1`: 10%; `NC(=O)c1n[nH]c(-n2cc(C3=CCCCC3)nn2)n1`: 7%; `NC(=O)c1n[nH]c(-n2cc(CO)nn2)n1`: 8%. In the case of `CCCCCc1ccc(-c2cn(-c3n[nH]c(C(=O)OC)n3)nn2)cc1`, in assay [1], the Activity was 23%. Turning to `NC(=O)c1n[nH]c(-n2cc(-c3ccc(F)cc3)nn2)n1`, the Activity in assay [1] was found to be 0%.

`COc1ccc(-c2cn(-c3n[nH]c(C(N)=O)n3)nn2)cc1` came in with an Activity in assay [1] of 0%. On to `CCOC(=O)c1cn(-c2n[nH]c(C(=O)OC)n2)nn1`, for which the Activity in assay [1] amounted to 20%.

With `CSC(=O)c1cccc2nnsc12` [ACIBENZOLAR-S-METHYL], the Activity in assay [2] amounted to 96%; in assay [3], 95%.

Consider `COC(=O)c1n[nH]c(-n2cc(-c3ccc(F)cc3)nn2)n1`, for which the Activity in assay [1] is given as 12%. Same read-out and setting: next, `Cc1ccc(-c2cn(-c3n[nH]c(C(N)=O)n3)nn2)cc1`: 6%; `NC(=O)c1n[nH]c(-n2cc(C3(O)CCCC3)nn2)n1`: 13%; `COC(=O)c1n[nH]c(-n2cc(C3(O)CCCC3)nn2)n1`: 10%. In the case of `COC(=O)c1n[nH]c(-n2cc(COC(C)=O)nn2)n1`, the Activity in assay [1] stood at 36%. As to `O=C1NCNC(=O)N1`, in assay [1], the Activity is on record as 45%.
